# Results published in the kinase profiling compilation of Christmann-Franck et al. (2016).
# What was measured:
# Assay in all cases: KINOMEscan competition binding
# Conditions in all cases: compound 1.0 µM
# ALK (human) = ALK (human) (UniProt Q9UM73)
# CDK17 (human) = CDK17 (human) (UniProt Q00537)
# CDK9 (human) = CDK9 (human) (UniProt P50750)
# CHEK2 (human) = CHEK2 (human) (UniProt O96017)
# CIT (human) = CIT (human) (UniProt O14578)
# CLK3 (human) = CLK3 (human) (UniProt P49761)
# CLK4 (human) = CLK4 (human) (UniProt Q9HAZ1)
# CSNK1G2 (human) = CSNK1G2 (human) (UniProt P78368)
# DDR2 (human) = DDR2 (human) (UniProt Q16832)
# [1] = test system: EGFR (human), P00533 [746-750 del]
# ERN1 (human) = ERN1 (human) (UniProt O75460)
# Sequence of ERN1 (human) (O75460 whole entry, looked up): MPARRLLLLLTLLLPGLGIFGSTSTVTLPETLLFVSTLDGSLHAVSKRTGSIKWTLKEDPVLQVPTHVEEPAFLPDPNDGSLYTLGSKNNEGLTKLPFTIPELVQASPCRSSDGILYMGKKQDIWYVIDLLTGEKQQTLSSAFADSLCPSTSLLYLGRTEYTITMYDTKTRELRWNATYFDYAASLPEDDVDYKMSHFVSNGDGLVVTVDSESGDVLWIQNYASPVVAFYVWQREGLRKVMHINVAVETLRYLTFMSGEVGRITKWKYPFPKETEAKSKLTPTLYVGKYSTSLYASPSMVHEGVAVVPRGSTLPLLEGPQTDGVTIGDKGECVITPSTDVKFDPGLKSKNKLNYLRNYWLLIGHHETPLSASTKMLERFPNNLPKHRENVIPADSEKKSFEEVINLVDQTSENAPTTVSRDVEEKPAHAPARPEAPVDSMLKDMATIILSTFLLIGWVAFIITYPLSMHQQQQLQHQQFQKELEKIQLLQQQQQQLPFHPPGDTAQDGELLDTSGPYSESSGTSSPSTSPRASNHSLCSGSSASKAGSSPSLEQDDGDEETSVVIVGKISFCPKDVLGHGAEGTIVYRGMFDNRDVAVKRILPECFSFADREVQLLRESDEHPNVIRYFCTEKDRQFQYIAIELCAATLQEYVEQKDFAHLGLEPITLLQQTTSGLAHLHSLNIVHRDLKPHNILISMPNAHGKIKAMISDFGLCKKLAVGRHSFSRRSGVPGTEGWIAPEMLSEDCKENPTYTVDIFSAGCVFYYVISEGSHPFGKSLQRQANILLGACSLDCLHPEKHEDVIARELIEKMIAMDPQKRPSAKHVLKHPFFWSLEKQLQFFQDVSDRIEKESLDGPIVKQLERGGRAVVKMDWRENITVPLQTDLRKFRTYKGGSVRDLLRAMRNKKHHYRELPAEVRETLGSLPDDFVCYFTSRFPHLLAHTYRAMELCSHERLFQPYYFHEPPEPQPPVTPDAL
# FLT3 (human) = FLT3 (human) (UniProt P36888)
# [2] = test system: FLT3 (human), P36888 [N841I]
# HUNK (human) = HUNK (human) (UniProt P57058)
# INSR (human) = INSR (human) (UniProt P06213)
# Sequence of INSR (human) (P06213 whole entry, looked up): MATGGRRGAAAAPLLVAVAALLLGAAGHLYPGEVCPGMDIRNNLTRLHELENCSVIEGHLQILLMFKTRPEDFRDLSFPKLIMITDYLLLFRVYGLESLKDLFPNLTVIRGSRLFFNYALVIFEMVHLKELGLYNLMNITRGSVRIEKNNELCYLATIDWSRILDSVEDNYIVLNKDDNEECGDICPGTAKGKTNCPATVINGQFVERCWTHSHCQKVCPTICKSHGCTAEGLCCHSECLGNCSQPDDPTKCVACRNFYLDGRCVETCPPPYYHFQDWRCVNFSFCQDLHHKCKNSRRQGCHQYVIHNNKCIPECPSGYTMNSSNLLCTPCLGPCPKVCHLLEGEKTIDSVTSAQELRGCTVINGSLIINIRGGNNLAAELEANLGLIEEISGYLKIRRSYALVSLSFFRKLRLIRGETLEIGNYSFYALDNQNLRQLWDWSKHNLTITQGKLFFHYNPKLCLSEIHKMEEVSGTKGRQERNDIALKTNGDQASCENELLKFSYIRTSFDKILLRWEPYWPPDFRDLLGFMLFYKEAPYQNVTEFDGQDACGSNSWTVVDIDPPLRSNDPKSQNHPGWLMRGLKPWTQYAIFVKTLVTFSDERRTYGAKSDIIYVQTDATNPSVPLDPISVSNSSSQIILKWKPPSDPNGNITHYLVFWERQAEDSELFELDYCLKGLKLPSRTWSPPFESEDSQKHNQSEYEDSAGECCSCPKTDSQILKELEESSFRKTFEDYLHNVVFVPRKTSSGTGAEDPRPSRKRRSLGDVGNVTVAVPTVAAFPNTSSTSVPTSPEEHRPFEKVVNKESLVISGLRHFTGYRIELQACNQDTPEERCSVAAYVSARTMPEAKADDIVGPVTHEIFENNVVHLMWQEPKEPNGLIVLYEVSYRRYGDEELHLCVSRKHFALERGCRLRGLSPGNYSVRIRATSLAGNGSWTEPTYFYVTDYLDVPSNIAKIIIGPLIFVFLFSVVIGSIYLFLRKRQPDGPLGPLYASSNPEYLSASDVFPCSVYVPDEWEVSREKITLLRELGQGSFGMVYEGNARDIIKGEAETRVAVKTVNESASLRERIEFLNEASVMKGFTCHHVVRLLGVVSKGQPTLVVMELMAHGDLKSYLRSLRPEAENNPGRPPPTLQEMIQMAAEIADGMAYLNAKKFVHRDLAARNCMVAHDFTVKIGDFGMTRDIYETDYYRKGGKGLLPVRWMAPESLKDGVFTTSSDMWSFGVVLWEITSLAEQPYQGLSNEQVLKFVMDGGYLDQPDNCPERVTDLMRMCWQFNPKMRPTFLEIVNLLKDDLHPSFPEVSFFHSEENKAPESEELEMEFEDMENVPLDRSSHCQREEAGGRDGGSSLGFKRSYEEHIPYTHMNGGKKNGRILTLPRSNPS
# MAP3K13 (human) = MAP3K13 (human) (UniProt O43283)
# Sequence of MAP3K13 (human) (O43283 whole entry, looked up): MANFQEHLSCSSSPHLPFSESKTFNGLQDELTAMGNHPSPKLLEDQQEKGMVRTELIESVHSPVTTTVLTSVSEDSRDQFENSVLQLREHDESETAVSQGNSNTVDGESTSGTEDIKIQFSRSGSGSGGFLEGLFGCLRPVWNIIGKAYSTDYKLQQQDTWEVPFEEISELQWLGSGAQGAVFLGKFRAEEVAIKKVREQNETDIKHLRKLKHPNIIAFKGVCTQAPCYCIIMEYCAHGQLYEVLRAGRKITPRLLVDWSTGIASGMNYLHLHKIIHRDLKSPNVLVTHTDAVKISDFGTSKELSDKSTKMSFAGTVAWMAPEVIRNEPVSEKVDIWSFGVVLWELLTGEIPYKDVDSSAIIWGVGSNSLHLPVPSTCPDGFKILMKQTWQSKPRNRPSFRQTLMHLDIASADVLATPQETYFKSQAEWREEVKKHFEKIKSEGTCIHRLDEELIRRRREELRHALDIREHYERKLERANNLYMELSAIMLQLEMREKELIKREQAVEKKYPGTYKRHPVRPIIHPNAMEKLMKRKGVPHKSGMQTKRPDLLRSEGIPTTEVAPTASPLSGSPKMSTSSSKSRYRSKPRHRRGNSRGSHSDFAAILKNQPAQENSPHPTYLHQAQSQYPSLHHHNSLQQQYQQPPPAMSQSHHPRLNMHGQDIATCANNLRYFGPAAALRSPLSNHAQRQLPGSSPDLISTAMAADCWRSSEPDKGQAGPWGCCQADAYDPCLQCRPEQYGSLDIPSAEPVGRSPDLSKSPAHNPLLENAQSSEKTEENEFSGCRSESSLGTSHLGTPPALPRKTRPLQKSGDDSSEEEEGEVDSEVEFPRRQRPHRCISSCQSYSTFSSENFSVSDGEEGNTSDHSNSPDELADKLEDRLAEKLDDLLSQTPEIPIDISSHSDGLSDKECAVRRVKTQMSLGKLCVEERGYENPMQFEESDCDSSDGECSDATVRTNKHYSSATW
# MAP4K2 (human) = MAP4K2 (human) (UniProt Q12851)
# MAPK10 (human) = MAPK10 (human) (UniProt P53779)
# MAPK12 (human) = MAPK12 (human) (UniProt P53778)
# MAPK3 (human) = MAPK3 (human) (UniProt P27361)
# MARK2 (human) = MARK2 (human) (UniProt Q7KZI7)
# MARK4 (human) = MARK4 (human) (UniProt Q96L34)
# NEK3 (human) = NEK3 (human) (UniProt P51956)
# NEK6 (human) = NEK6 (human) (UniProt Q9HC98)
# Sequence of NEK6 (human) (Q9HC98 whole entry, looked up): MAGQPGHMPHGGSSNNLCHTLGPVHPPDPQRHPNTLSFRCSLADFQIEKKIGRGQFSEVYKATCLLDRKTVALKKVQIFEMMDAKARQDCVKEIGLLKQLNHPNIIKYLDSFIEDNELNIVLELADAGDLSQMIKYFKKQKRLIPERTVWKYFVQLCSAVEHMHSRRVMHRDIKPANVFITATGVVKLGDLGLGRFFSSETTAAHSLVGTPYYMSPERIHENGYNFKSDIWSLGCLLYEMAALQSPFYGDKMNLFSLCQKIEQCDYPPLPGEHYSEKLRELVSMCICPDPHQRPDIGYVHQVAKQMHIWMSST
# NIM1 (human) = NIM1 (human) (UniProt Q8IY84)
# Sequence of NIM1 (human) (Q8IY84 whole entry, looked up): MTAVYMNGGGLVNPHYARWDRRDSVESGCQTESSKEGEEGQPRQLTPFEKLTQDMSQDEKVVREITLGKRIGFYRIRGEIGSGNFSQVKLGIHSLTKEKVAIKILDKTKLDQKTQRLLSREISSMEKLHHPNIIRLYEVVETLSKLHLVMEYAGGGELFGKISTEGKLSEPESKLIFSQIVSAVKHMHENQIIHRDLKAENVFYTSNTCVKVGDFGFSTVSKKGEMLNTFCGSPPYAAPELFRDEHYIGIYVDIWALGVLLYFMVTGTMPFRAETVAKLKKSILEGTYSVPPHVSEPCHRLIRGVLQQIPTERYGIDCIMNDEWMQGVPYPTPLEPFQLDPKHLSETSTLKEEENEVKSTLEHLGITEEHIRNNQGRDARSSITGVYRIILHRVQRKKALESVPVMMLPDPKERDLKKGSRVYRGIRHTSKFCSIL
# NUAK2 (human) = NUAK2 (human) (UniProt Q9H093)
# PAK7 (human) = PAK7 (human) (UniProt Q9P286)
# PDGFRB (human) = PDGFRB (human) (UniProt P09619)
# PIK3C2B (human) = PIK3C2B (human) (UniProt O00750)
# [3] = test system: PIK3CA (human), P42336 [E545K]
# PIK3CB (human) = PIK3CB (human) (UniProt P42338)
# PKMYT1 (human) = PKMYT1 (human) (UniProt Q99640)
# PKN1 (human) = PKN1 (human) (UniProt Q16512)
# PRKD1 (human) = PRKD1 (human) (UniProt Q15139)
# PRPF4B (human) = PRPF4B (human) (UniProt Q13523)
# ROS1 (human) = ROS1 (human) (UniProt P08922)
# RPS6KA6 KD1 (human) = RPS6KA6 KD1 (human) (UniProt Q9UK32)
# RPS6KB1 (human) = RPS6KB1 (human) (UniProt P23443)
# SGK3 (human) = SGK3 (human) (UniProt Q96BR1)
# STK11 (human) = STK11 (human) (UniProt Q15831)
# Sequence of STK11 (human) (Q15831 whole entry, looked up): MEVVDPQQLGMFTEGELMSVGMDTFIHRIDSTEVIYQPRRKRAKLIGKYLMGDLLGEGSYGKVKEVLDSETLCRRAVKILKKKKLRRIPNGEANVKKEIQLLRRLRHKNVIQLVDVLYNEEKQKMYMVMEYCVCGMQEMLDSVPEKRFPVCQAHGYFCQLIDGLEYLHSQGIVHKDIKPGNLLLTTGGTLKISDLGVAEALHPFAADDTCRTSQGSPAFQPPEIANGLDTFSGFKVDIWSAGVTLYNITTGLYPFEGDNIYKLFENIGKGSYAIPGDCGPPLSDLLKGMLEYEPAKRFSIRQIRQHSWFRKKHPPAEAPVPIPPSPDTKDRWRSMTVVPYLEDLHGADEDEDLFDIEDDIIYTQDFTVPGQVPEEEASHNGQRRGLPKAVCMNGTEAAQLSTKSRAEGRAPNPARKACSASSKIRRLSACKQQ
# STK38L (human) = STK38L (human) (UniProt Q9Y2H1)
# STK39 (human) = STK39 (human) (UniProt Q9UEW8)
# [4] = target: TYK2 JH1 catalytic (human) (UniProt P29597)
# Sequence of CDK17 (human) (Q00537 whole entry, looked up): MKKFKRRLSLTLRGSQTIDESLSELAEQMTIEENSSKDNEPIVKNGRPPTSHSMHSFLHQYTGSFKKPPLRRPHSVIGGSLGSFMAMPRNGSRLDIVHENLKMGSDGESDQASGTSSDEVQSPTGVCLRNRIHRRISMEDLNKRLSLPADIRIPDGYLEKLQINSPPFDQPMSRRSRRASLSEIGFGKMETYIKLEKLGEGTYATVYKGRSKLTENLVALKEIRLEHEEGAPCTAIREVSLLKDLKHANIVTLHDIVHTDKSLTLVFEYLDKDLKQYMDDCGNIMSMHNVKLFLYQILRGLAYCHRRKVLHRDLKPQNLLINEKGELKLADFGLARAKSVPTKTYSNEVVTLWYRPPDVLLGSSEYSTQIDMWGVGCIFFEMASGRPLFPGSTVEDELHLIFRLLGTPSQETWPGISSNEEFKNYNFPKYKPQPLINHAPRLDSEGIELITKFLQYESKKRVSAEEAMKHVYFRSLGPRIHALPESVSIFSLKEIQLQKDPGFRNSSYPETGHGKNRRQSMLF
smiles,measurement,setting,value
CN(C)C/C=C/C(=O)Nc1cccc(C(=O)Nc2ccc(Nc3nccc(-c4cccnc4)n3)cc2)c1,"kinase still bound, per cent of control",ALK (human),100%
same,"kinase still bound, per cent of control",CDK17 (human),84%
same,"kinase still bound, per cent of control",CDK9 (human),55%
same,"kinase still bound, per cent of control",CHEK2 (human),100%
same,"kinase still bound, per cent of control",CIT (human),28%
same,"kinase still bound, per cent of control",CLK3 (human),84%
same,"kinase still bound, per cent of control",CLK4 (human),16%
same,"kinase still bound, per cent of control",CSNK1G2 (human),12%
same,"kinase still bound, per cent of control",DDR2 (human),53%
same,"kinase still bound, per cent of control",[1],88%
same,"kinase still bound, per cent of control",ERN1 (human),78%
same,"kinase still bound, per cent of control",FLT3 (human),64%
same,"kinase still bound, per cent of control",[2],18%
same,"kinase still bound, per cent of control",HUNK (human),65%
same,"kinase still bound, per cent of control",INSR (human),100%
same,"kinase still bound, per cent of control",MAP3K13 (human),100%
same,"kinase still bound, per cent of control",MAP4K2 (human),9.9%
same,"kinase still bound, per cent of control",MAPK10 (human),0%
same,"kinase still bound, per cent of control",MAPK12 (human),78%
same,"kinase still bound, per cent of control",MAPK3 (human),100%
same,"kinase still bound, per cent of control",MARK2 (human),69%
same,"kinase still bound, per cent of control",MARK4 (human),40%
same,"kinase still bound, per cent of control",NEK3 (human),6.8%
same,"kinase still bound, per cent of control",NEK6 (human),17%
same,"kinase still bound, per cent of control",NIM1 (human),100%
same,"kinase still bound, per cent of control",NUAK2 (human),31%
same,"kinase still bound, per cent of control",PAK7 (human),75%
same,"kinase still bound, per cent of control",PDGFRB (human),6%
same,"kinase still bound, per cent of control",PIK3C2B (human),100%
same,"kinase still bound, per cent of control",[3],100%
same,"kinase still bound, per cent of control",PIK3CB (human),94%
same,"kinase still bound, per cent of control",PKMYT1 (human),100%
same,"kinase still bound, per cent of control",PKN1 (human),100%
same,"kinase still bound, per cent of control",PRKD1 (human),100%
same,"kinase still bound, per cent of control",PRPF4B (human),93%
same,"kinase still bound, per cent of control",ROS1 (human),100%
same,"kinase still bound, per cent of control",RPS6KA6 KD1 (human),88%
same,"kinase still bound, per cent of control",RPS6KB1 (human),68%
same,"kinase still bound, per cent of control",SGK3 (human),100%
same,"kinase still bound, per cent of control",STK11 (human),67%
same,"kinase still bound, per cent of control",STK38L (human),99%
same,"kinase still bound, per cent of control",STK39 (human),95%
same,"kinase still bound, per cent of control",[4],16%
